Patent US10981894B2, “Melanocortin subtype-2 receptor (MC2R) antagonists and uses thereof” (Crinetics Pharmaceuticals, Inc., priority 2018, dated 2021)

Molecular target: hMC2 receptor (Homo sapiens, UniProt Q01718)
Assay: hMC2 membrane binding assay ([125I]ACTH (1-39) Tyr23, SPA)
Parameters: scale not given here
Details: crude hMC2R membranes from CRE-bla-CHO-K1 cells expressing hMC2 receptor and hMRAP; [125I]ACTH (1-39) Tyr23 0.2 nM; 1.5 hours at room temperature; read-out: MC2R binding potency
Method in brief: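 Ki comes from non-linear regression of SPA scintillation counts. Displacement of 0.2 nM [125I]ACTH(1-39) Tyr23 by compound dose series (usually 0–10,000 nM final) ran 1.5 h at room temperature. Membranes came from CHO-K1 CRE-bla cells stably expressing hMC2R plus hMRAP, bead-coupled in pH 7.4 buffer with 0.2% BSA.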

Chain of hMC2 receptor (Q01718 whole entry): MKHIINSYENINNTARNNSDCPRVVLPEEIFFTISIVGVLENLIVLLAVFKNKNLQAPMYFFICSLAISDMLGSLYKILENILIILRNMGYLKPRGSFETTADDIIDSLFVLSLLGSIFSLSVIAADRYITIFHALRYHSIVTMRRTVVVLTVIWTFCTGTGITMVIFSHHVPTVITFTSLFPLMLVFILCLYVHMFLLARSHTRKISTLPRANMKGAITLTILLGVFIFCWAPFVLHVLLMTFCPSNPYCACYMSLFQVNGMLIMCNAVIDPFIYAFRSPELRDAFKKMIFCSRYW
Chain of hMC2 receptor (Q8TCY5 whole entry partner): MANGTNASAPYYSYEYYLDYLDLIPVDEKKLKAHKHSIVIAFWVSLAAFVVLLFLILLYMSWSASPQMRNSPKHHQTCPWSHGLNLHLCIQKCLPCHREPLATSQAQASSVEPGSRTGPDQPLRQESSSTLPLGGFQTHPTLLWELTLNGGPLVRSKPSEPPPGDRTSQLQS

| SMILES | Ki |
| --- | --- |
| CCOc1ncccc1-c1ccc(N2CCN(C(=O)N3CCc4cccc(C#N)c43)C[C@H]2CC)c(C(=O)N[C@@H]2CCNC2)n1 [Compound 1-365, 5-[(2R)-4-(7-cyano-2,3-dihydro-1H-indole-1-carbonyl)-2-ethylpiperazin-1-yl]-2′-ethoxy-N-[(3R)-pyrrolidin-3-yl]-[2,3′-bipyridine]-6-carboxamide] | < 10 nM |
| CCOc1ncccc1-c1ccc(N2CCN(C(=O)c3ccc(C(F)(F)F)s3)C[C@H]2CC)c(C(=O)N[C@@H]2CCNC2)n1 [Compound 1-368, 2′-ethoxy-5-[(2R)-2-ethyl-4-[5-(trifluoromethyl)thiophene-2-carbonyl]piperazin-1-yl]-N-[(3R)-pyrrolidin-3-yl]-[2,3′-bipyridine]-6-carboxamide] | < 10 nM |
| CCOc1ncccc1-c1ccc(N2CCN(C(=O)C3(c4ccc(F)cc4F)CCC3)C[C@H]2CC)c(C(=O)N[C@@H]2CCN(C)C2)n1 [Compound 1-371, 5-[(2R)-4-[1-(2,4-difluorophenyl)cyclobutanecarbonyl]-2-ethylpiperazin-1-yl]-2′-ethoxy-N-[(3R)-1-methylpyrrolidin-3-yl]-[2,3′-bipyridine]-6-carboxamide] | < 10 nM |
| CCOc1ncccc1-c1ccc(N2CCN(C(=O)N3CCC[C@H]3C(F)(F)F)C[C@H]2CC)c(C(=O)N[C@@H]2CCN(C)C2)n1 [Compound 1-372, 2′-ethoxy-5-[(2R)-2-ethyl-4-[(2S)-2-(trifluoromethyl)pyrrolidine-1-carbonyl]piperazin-1-yl]-N-[(3R)-1-methylpyrrolidin-3-yl]-[2,3′-bipyridine]-6-carboxamide] | < 10 nM |
| CCOc1ncccc1-c1ccc(N2CCN(C(=O)N3CCC[C@H]3C(F)(F)F)C[C@H]2CC)c(C(=O)N[C@H]2CCN(C)C2)n1 [Compound 1-373, 2′-ethoxy-5-[(2R)-2-ethyl-4-[(2S)-2-(trifluoromethyl)pyrrolidine-1-carbonyl]piperazin-1-yl]-N-[(3S)-1-methylpyrrolidin-3-yl]-[2,3′-bipyridine]-6-carboxamide] | < 10 nM |
| CCOc1ccccc1-c1ccc(N2CCN(C(=O)N3CCC[C@H]3C(F)(F)F)C[C@H]2CC)c(C(=O)N[C@@H]2CCN(C)C2)n1 [Compound 1-374, 6-(2-ethoxyphenyl)-3-[(2R)-2-ethyl-4-[(2S)-2-(trifluoromethyl)pyrrolidine-1-carbonyl]piperazin-1-yl]-N-[(3R)-1-methylpyrrolidin-3-yl]pyridine-2-carboxamide] | < 10 nM |
| CCOc1ccccc1-c1ccc(N2CCN(C(=O)N3CCC[C@H]3C(F)(F)F)C[C@H]2CC)c(C(=O)N[C@H]2CCN(C)C2)n1 [Compound 1-375, 6-(2-ethoxyphenyl)-3-[(2R)-2-ethyl-4-[(2S)-2-(trifluoromethyl)pyrrolidine-1-carbonyl]piperazin-1-yl]-N-[(3S)-1-methylpyrrolidin-3-yl]pyridine-2-carboxamide] | < 10 nM |
| CCOc1ncccc1-c1ccc(N2CCN(C(=O)OC(C(C)(C)C)C(F)(F)F)C[C@H]2CC)c(C(=O)N[C@@H]2CCN(C)C2)n1 (stereo partly drawn) [Compound 1-376, 1,1,1-trifluoro-3,3-dimethylbutan-2-yl (3R)-4-(2′-ethoxy-6-{[(3R)-1-methylpyrrolidin-3-yl]carbamoyl}-[2,3′-bipyridin]-5-yl)-3-ethylpiperazine-1-carboxylate] | < 10 nM |
| CCOc1ncccc1-c1ccc(N2CCN(C(=O)O[C@@H](c3ccccc3)C(F)(F)F)C[C@H]2CC)c(C(=O)N[C@@H]2CCNC2)n1 [Compound 1-377, (1S)-2,2,2-trifluoro-1-phenylethyl (3R)-4-(2′-ethoxy-6-{[(3R)-pyrrolidin-3-yl]carbamoyl}-[2,3′-bipyridin]-5-yl)-3-ethylpiperazine-1-carboxylate] | < 10 nM |
| CCOc1ncccc1-c1ccc(N2CCN(C(=O)c3cc(Cl)sc3Cl)C[C@H]2CC)c(C(=O)N[C@@H]2CCN(C)C2)n1 [Compound 1-378, 5-[(2R)-4-(2,5-dichlorothiophene-3-carbonyl)-2-ethylpiperazin-1-yl]-2′-ethoxy-N-[(3R)-1-methylpyrrolidin-3-yl]-[2,3′-bipyridine]-6-carboxamide] | < 10 nM |
| CCOc1ncccc1-c1ccc(N2CCN(C(=O)c3sc(Cl)cc3Cl)C[C@H]2CC)c(C(=O)N[C@@H]2CCN(C)C2)n1 [Compound 1-380, 5-[(2R)-4-(3,5-dichlorothiophene-2-carbonyl)-2-ethylpiperazin-1-yl]-2′-ethoxy-N-[(3R)-1-methylpyrrolidin-3-yl]-[2,3′-bipyridine]-6-carboxamide] | < 10 nM |
| CCOc1ncccc1-c1ccc(N2CCN(C(=O)N3CCC[C@H]3c3cccc(F)c3)C[C@H]2CC)c(C(=O)N[C@@H]2CCN(C)C2)n1 [Compound 1-381, 2′-ethoxy-5-[(2R)-2-ethyl-4-[(2S)-2-(3-fluorophenyl)pyrrolidine-1-carbonyl]piperazin-1-yl]-N-[(3R)-1-methylpyrrolidin-3-yl]-[2,3′-bipyridine]-6-carboxamide] | < 10 nM |
| CCOc1ncccc1-c1ccc(N2CCN(C(=O)C3CCc4cccc(Cl)c43)C[C@H]2CC)c(C(=O)N[C@@H]2CCN(C)C2)n1 (stereo partly drawn) [Compound 1-382, 5-[(2R)-4-(7-chloro-2,3-dihydro-1H-indene-1-carbonyl)-2-ethylpiperazin-1-yl]-2′-ethoxy-N-[(3R)-1-methylpyrrolidin-3-yl]-[2,3′-bipyridine]-6-carboxamide] | < 10 nM |
| CCOc1ncccc1-c1ccc(N2CCN(C(=O)N3CCc4cccc(C#N)c43)C[C@H]2CC)c(C(=O)N[C@@H]2CCN(C)C2)n1 [Compound 1-383, 5-[(2R)-4-(7-cyano-2,3-dihydro-1H-indole-1-carbonyl)-2-ethylpiperazin-1-yl]-2′-ethoxy-N-[(3R)-1-methylpyrrolidin-3-yl]-[2,3′-bipyridine]-6-carboxamide] | < 10 nM |
| CCOc1ncccc1-c1ccc(N2CCN(C(=O)C34CCC(C(F)(F)F)(CC3)C4)C[C@H]2CC)c(C(=O)N[C@@H]2CCN(C)C2)n1 [Compound 1-385, 2′-ethoxy-5-[(2R)-2-ethyl-4-[4-(trifluoromethyl)bicyclo[2.2.1]heptane-1-carbonyl]piperazin-1-yl]-N-[(3R)-1-methylpyrrolidin-3-yl]-[2,3′-bipyridine]-6-carboxamide] | < 10 nM |
| CCOc1ncccc1-c1ccc(N2CCN(C(=O)N3CCC[C@H]3C(F)(F)F)C[C@H]2CC)c(C(=O)NC[C@H]2CCN2C)n1 [Compound 1-386, 2′-ethoxy-5-[(2R)-2-ethyl-4-[(2S)-2-(trifluoromethyl)pyrrolidine-1-carbonyl]piperazin-1-yl]-N-{[(2R)-1-methylazetidin-2-yl]methyl}-[2,3′-bipyridine]-6-carboxamide] | 10 to 100 nM |
| CCOc1ccccc1-c1ccc(N2CCN(C(=O)N3CCC[C@H]3C(F)(F)F)C[C@H]2CC)c(C(=O)NC[C@@H]2CCN2C)n1 [Compound 1-387, 6-(2-ethoxyphenyl)-3-[(2R)-2-ethyl-4-[(2S)-2-(trifluoromethyl)pyrrolidine-1-carbonyl]piperazin-1-yl]-N-{[(2S)-1-methylazetidin-2-yl]methyl}pyridine-2-carboxamide] | < 10 nM |
| CCOc1ccccc1-c1ccc(N2CCN(C(=O)C34CCC(C(F)(F)F)(CC3)C4)C[C@H]2CC)c(C(=O)N[C@@H]2CCN(C)C2)n1 [Compound 1-388, 6-(2-ethoxyphenyl)-3-[(2R)-2-ethyl-4-[4-(trifluoromethyl)bicyclo[2.2.1]heptane-1-carbonyl]piperazin-1-yl]-N-[(3R)-1-methylpyrrolidin-3-yl]pyridine-2-carboxamide] | < 10 nM |
| CCOc1ncccc1-c1ccc(N2CCN(C(=O)N3CCc4cccc(C(F)(F)F)c43)C[C@H]2CC)c(C(=O)N[C@H]2CCN(C)C2)n1 [Compound 1-389, 2′-ethoxy-5-[(2R)-2-ethyl-4-[7-(trifluoromethyl)-2,3-dihydro-1H-indole-1-carbonyl]piperazin-1-yl]-N-[(3S)-1-methylpyrrolidin-3-yl]-[2,3′-bipyridine]-6-carboxamide] | < 10 nM |
| CCOc1ncccc1-c1ccc(N2CCN(C(=O)C3(C(F)(F)F)CCC3)C[C@H]2CC)c(C(=O)NC[C@@H]2CCN2C)n1 [Compound 1-390, 2′-ethoxy-5-[(2R)-2-ethyl-4-[1-(trifluoromethyl)cyclobutanecarbonyl]piperazin-1-yl]-N-{[(2S)-1-methylazetidin-2-yl]methyl}-[2,3′-bipyridine]-6-carboxamide] | 10 to 100 nM |
| CCOc1ncccc1-c1ccc(N2CCN(C(=O)N3CCC[C@H]3C(F)(F)F)C[C@H]2CC)c(C(=O)NC[C@@H]2CCN2C)n1 [Compound 1-391, 2′-ethoxy-5-[(2R)-2-ethyl-4-[(2S)-2-(trifluoromethyl)pyrrolidine-1-carbonyl]piperazin-1-yl]-N-{[(2S)-1-methylazetidin-2-yl]methyl}-[2,3′-bipyridine]-6-carboxamide] | < 10 nM |
| CCOc1ccccc1-c1ccc(N2CCN(C(=O)N3CCc4cccc(C#N)c43)C[C@H]2CC)c(C(=O)N[C@@H]2CCN(C)C2)n1 [Compound 1-393, 3-[(2R)-4-(7-cyano-2,3-dihydro-1H-indole-1-carbonyl)-2-ethylpiperazin-1-yl]-6-(2-ethoxyphenyl)-N-[(3R)-1-methylpyrrolidin-3-yl]pyridine-2-carboxamide] | < 10 nM |
| CCOc1ncccc1-c1ccc(N2CCN(C(=O)C34CCC(C(F)(F)F)(CC3)C4)C[C@H]2CC)c(C(=O)NC2CN(C)C2)n1 [Compound 1-394, 2′-ethoxy-5-[(2R)-2-ethyl-4-[4-(trifluoromethyl)bicyclo[2.2.1]heptane-1-carbonyl]piperazin-1-yl]-N-(1-methylazetidin-3-yl)-[2,3′-bipyridine]-6-carboxamide] | < 10 nM |
| CCOc1ncccc1-c1ccc(N2CCN(C(=O)C34CCC(C(F)(F)F)(CC3)C4)C[C@H]2CC)c(C(=O)NCC2CN(C)C2)n1 [Compound 1-395, 2′-ethoxy-5-[(2R)-2-ethyl-4-[4-(trifluoromethyl)bicyclo[2.2.1]heptane-1-carbonyl]piperazin-1-yl]-N-[(1-methylazetidin-3-yl)methyl]-[2,3′-bipyridine]-6-carboxamide] | < 10 nM |
